The target of test [1] is Proto-oncogene tyrosine-protein kinase Src (Gallus gallus, UniProt P00523). The test is described as follows: Inhibition of glutamate/tyrosine (4:1) copolymer phosphorylation by avian c-Src tyrosine kinase.
Test [2] has as its target Platelet-derived growth factor receptor beta (Mus musculus, UniProt P05622). The test is described as follows: Inhibition of glutamate/tyrosine (4:1) copolymer phosphorylation by mouse platelet-derived growth factor receptor-beta.
Test [3] addresses Platelet-derived growth factor receptor (PDGFr) (Rattus norvegicus, UniProt P20786+Q05030). The test is described as follows: Inhibition of PDGF-dependent rat glioma cell proliferation. Format: functional.
Test [4] concerns the target Vascular endothelial growth factor receptor (Homo sapiens, UniProt P17948+P35916+P35968). Nature of the test: Inhibition of VEGF-stimulated human umbilical vein endothelial cell proliferation. In kind it is functional, cell-based.
For test [5], the target named is Vascular endothelial growth factor receptor 2 (Homo sapiens, UniProt P35968). Nature of the test: Inhibition of glutamate/tyrosine (4:1) copolymer phosphorylation by human VEGFR 2 in DELFIA assay.

The IC50 is the concentration that inhibits the measured activity by half. Low readings indicate inhibition by little substance, high ones a need for much substance.

The structures appear in SMILES notation. Where only a bound is given, the exact number is not on record here.

Chain of Platelet-derived growth factor receptor beta (P05622 whole entry): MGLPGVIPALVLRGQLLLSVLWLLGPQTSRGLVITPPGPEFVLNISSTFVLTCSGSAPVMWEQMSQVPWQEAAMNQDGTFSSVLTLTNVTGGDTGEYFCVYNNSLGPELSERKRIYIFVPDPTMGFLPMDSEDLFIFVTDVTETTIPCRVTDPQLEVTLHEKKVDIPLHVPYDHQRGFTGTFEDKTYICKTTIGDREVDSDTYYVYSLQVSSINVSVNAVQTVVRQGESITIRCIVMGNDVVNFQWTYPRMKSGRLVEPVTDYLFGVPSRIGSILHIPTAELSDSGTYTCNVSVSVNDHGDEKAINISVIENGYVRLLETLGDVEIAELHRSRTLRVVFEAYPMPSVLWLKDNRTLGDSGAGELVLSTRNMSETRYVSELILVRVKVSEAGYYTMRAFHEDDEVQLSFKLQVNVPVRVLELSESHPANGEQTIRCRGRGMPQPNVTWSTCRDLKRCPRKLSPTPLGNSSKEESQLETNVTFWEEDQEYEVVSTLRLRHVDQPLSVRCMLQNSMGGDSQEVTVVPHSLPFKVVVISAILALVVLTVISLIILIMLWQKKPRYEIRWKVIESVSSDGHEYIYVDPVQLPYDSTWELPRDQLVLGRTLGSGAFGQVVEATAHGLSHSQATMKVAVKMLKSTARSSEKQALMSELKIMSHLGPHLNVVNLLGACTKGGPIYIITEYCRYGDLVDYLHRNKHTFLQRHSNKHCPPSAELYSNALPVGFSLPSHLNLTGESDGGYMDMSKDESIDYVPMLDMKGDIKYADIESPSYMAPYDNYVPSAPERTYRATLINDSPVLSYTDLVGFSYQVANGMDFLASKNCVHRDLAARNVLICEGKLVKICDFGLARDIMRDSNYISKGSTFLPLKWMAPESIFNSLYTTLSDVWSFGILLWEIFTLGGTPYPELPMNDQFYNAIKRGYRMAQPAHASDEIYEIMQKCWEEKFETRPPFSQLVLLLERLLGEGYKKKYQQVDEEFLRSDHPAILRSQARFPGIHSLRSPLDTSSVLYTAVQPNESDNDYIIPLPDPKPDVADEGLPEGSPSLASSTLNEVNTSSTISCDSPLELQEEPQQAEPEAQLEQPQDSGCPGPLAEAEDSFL
Chain of Vascular endothelial growth factor receptor 2 (P35968 whole entry): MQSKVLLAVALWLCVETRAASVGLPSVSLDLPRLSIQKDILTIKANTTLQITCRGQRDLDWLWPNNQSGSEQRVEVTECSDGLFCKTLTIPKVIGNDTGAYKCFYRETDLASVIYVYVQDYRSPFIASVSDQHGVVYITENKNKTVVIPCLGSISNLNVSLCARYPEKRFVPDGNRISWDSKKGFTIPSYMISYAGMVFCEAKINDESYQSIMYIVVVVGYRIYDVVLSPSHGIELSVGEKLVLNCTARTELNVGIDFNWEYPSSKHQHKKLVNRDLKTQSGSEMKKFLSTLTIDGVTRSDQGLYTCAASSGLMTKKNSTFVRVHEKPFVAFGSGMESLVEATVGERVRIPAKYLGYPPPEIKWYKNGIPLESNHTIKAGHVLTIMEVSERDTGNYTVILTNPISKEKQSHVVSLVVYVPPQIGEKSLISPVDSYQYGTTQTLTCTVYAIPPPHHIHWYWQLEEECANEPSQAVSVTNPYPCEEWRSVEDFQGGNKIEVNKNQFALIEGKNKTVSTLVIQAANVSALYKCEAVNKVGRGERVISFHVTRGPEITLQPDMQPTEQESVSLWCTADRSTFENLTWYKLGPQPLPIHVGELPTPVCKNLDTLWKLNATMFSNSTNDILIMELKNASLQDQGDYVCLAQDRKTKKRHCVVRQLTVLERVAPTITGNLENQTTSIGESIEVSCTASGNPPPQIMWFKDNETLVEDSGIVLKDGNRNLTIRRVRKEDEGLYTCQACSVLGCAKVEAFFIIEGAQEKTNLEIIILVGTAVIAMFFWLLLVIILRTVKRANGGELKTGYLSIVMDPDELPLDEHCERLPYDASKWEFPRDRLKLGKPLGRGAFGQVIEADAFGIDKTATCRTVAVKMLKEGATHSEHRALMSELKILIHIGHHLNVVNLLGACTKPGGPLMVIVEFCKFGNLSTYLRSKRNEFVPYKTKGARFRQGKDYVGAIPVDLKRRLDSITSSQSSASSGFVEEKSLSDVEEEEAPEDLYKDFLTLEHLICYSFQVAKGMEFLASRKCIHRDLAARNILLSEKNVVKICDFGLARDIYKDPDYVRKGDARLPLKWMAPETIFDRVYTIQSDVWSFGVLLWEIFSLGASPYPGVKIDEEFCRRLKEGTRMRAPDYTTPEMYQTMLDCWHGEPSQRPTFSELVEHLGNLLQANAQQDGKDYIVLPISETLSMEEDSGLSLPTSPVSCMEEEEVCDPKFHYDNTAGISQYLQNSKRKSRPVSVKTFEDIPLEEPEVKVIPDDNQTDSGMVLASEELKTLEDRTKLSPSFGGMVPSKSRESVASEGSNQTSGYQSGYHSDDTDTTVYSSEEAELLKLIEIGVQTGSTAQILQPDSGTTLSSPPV

Turning to `CN1CCN(CCCNc2cc3nc(N)c(-c4c(Cl)cccc4Cl)cc3cn2)CC1`, the 50% inhibitory concentration (IC50) worked out at 0.069 µM in test [1] and 4.7 µM in test [2].

For `CCNC(=O)Nc1nc2nc(NCCCCN(CC)CC)ncc2cc1-c1cc(OC)cc(OC)c1`, the 50% inhibitory concentration (IC50) in test [1] was 22 µM; in test [2] it was 27 µM; in test [3] it was > 25 µM.

For `COc1cc(OC)cc(-c2cc3cnc(NCCCCO)cc3nc2NC(=O)NC(C)(C)C)c1`, the 50% inhibitory concentration (IC50) in test [1] is > 50 µM; in test [2] it was 23 µM; in test [3] it was 1.2 µM.

Take `COc1cc(OC)cc(-c2cc3cnc(N(CCCCCO)C(C)=O)cc3nc2NC(=O)NC(C)(C)C)c1`: the half-maximal inhibitory concentration (IC50) in test [1] and in test [2] was > 50 µM in each case.

On to `CN1CCN(CCCNc2cc3nc(NCCCN4CCN(C)CC4)c(-c4ccccc4)cc3cn2)CC1`, for which the figures for the IC50 in test [1] and in test [2] were 6.8 µM and > 50 µM, respectively.

For `COc1cc(OC)cc(C2Cc3cnc(N(CCCOCc4ccccc4)C(C)=O)cc3N=C2NC(=O)NC(C)(C)C)c1` (stereo unspecified), the IC50 in test [1] and in test [2] was > 50 µM in each case.

In the case of `COc1cc(OC)cc(C2Cc3cnc(N(CCCCOCc4ccccc4)C(C)=O)cc3N=C2NC(=O)NC(C)(C)C)c1` (stereo unspecified), the 50% inhibitory concentration (IC50) in test [1] and in test [2] was > 50 µM in each case.

As for `CCN(CC)CCCCNc1cc2nc(NC(=O)NC(C)(C)C)c(-c3ccccc3)cc2cn1`, the IC50 in test [1] was 0.11 µM; in test [2], 0.45 µM.

Consider `CCNC(=O)Nc1nc2nc(NCCCN3CCN(C)CC3)ncc2cc1-c1cc(OC)cc(OC)c1`, for which the values for the IC50 in test [1], in test [2] and in test [3] were 35 µM, 45 µM and 12 µM, respectively.

As for `COc1cc(OC)cc(C2Cc3cnc(N(CCCCCOCc4ccccc4)C(C)=O)cc3N=C2NC(=O)NC(C)(C)C)c1` (stereo unspecified), the half-inhibitory concentration (IC50) in test [1] and in test [2] was > 50 µM each time.

With `CCNC(=O)Nc1nc2cc(NCCCCN(CC)CC)ncc2cc1-c1c(Cl)cccc1Cl`, the figures for the 50% inhibitory concentration (IC50) in test [1] and in test [2] were 0.014 µM and 0.16 µM, respectively.

As to `COc1cc(OC)cc(-c2cc3cnc(NCCCN4CCN(C)CC4)cc3nc2N)c1`, the half-inhibitory concentration (IC50) in test [1] was > 50 µM; in test [2], 50 µM; in test [3] it was 9.1 µM.

As for `CCN(CC)CCCNc1cc2nc(NC(=O)NC(C)(C)C)c(-c3cc(OC)cc(OC)c3)cc2cn1`, the results for the 50% inhibitory concentration (IC50) in test [1], in test [2] and in test [3] were 16 µM, 18 µM and 4 µM, respectively.

`COc1cc(OC)cc(-c2cc3cnc(NCCCN4CCN(C)CC4)nc3nc2NC(=O)NC(C)(C)C)c1`: the figures for the half-maximal inhibitory concentration (IC50) in test [1], in test [2] and in test [3] were 26 µM, 31 µM and 7.9 µM, respectively.

Consider `COc1cc(OC)cc(-c2cc3cnc(N(CCCO)C(C)=O)cc3nc2NC(=O)NC(C)(C)C)c1`, for which the IC50 in test [1] and in test [2] was > 50 µM each time.

Consider `COc1cc(OC)cc(-c2cc3cnc(NCCCN4CCN(C)CC4)cc3nc2NC(=O)NC(C)(C)C)c1`, for which the half-inhibitory concentration (IC50) in test [1] amounted to 9.1 µM; in test [2] it was 16 µM; in test [3], 1.8 µM.

For `CN1CCN(CCCNc2cc3nc(N)c(-c4ccccc4)cc3cn2)CC1`, the IC50 in test [1] was 1.6 µM; in test [2], 8.8 µM.

Consider `COc1cc(OC)cc(-c2cc3cnc(NCCCCN4CCOCC4)cc3nc2NC(=O)NC(C)(C)C)c1`, for which the half-inhibitory concentration (IC50) in test [1] came out at 21 µM; in test [2] it was 15 µM; in test [3], 2.7 µM.

In the case of `CCNC(=O)Nc1nc2cc(NCCCN3CCN(C)CC3)ncc2cc1-c1cc(OC)cc(OC)c1`, the 50% inhibitory concentration (IC50) in test [1] came to 14 µM; in test [2], 30 µM; in test [3] it was 7.5 µM.

Take `CCN(CC)CCCCCNc1cc2nc(NC(=O)NC(C)(C)C)c(-c3cc(OC)cc(OC)c3)cc2cn1`: the half-inhibitory concentration (IC50) in test [1] is 3.6 µM; in test [2], 5 µM; in test [3], 1.5 µM.

For `CN1CCN(CCCNc2cc3nc(NC(=O)NC(C)(C)C)c(-c4ccccc4)cc3cn2)CC1`, the IC50 in test [1] came to 0.23 µM; in test [2] it was 1.2 µM.

As to `COc1cc(OC)cc(-c2cc3cnc(N(CCCCCOCc4ccccc4)C(C)=O)cc3nc2NC(=O)NC(C)(C)C)c1`, the 50% inhibitory concentration (IC50) in test [1] and in test [2] was > 50 µM in each case.

As to `CCN(CC)CCCCNc1ncc2cc(-c3cc(OC)cc(OC)c3)c(NC(=O)NC(C)(C)C)nc2n1` [PD-173074], the IC50 in test [4] was determined as 0.19 µM; in test [1], 20 µM; in test [5] it was 120 nM; in test [2], 14 µM; in test [3] it was 17 µM.

In the case of `COc1cc(OC)cc(-c2cc3cnc(NCCCCCN4CCOCC4)cc3nc2NC(=O)NC(C)(C)C)c1`, the IC50 in test [1] was 16 µM; in test [2], > 50 µM; in test [3], 2.9 µM.

As to `COc1cc(OC)cc(-c2cc3cnc(NCCCCOc4ccccc4)cc3nc2NC(=O)NC(C)(C)C)c1`, the half-maximal inhibitory concentration (IC50) in test [1] and in test [2] was > 50 µM in each case.

For the molecule `COc1cc(OC)cc(-c2cc3cnc(N(CCCCO)C(C)=O)cc3nc2NC(=O)NC(C)(C)C)c1`, the concentration for half-maximal inhibition (IC50) in test [1] and in test [2] was > 50 µM throughout.

For the molecule `COc1cc(OC)cc(-c2cc3cnc(NCCCCN4CCN(C)CC4)cc3nc2NC(=O)NC(C)(C)C)c1`, the IC50 in test [1] came out at 4.1 µM; in test [2] it was 3.6 µM; in test [3], 1.3 µM.

In the case of `COc1cc(OC)cc(C2Cc3cnc(N(CCCO)C(C)=O)cc3N=C2NC(=O)NC(C)(C)C)c1` (stereo unspecified), the IC50 in test [1] and in test [2] was > 50 µM in each case.

In the case of `CCN(CC)CCCCNc1cc2nc(NC(=O)NC(C)(C)C)c(-c3cc(OC)cc(OC)c3)cc2cn1`, the IC50 in test [1] turned out to be 4.6 µM; in test [2] it was 2.6 µM; in test [3], 2.1 µM.

For the molecule `COc1cc(OC)cc(-c2cc3cnc(NCCCOc4ccccc4)cc3nc2NC(=O)NC(C)(C)C)c1`, the half-inhibitory concentration (IC50) in test [1] and in test [2] was > 50 µM in each case.

Regarding `COc1cc(OC)cc(C2Cc3cnc(N(CCCCO)C(C)=O)cc3N=C2NC(=O)NC(C)(C)C)c1` (stereo unspecified), the IC50 in test [1] and in test [2] was > 50 µM each time.

In the case of `COc1cc(OC)cc(-c2cc3cnc(NCCCN4CCOCC4)cc3nc2NC(=O)NC(C)(C)C)c1`, the results for the IC50 in test [1] and in test [3] were > 50 µM and 3.4 µM, respectively.

For the molecule `COc1cc(OC)cc(-c2cc3cnc(NCCCO)nc3nc2NC(=O)NC(C)(C)C)c1`, the values for the IC50 in test [1], in test [2] and in test [3] were > 50 µM, > 50 µM and 11 µM, respectively.

`COc1cc(OC)cc(-c2cc3cnc(NCCCCCN4CCN(C)CC4)cc3nc2NC(=O)NC(C)(C)C)c1`: the IC50 was 6.1 µM in test [1], 27 µM in test [2] and 0.98 µM in test [3].

Regarding `COc1cc(OC)cc(-c2cc3cnc(NCCCO)cc3nc2NC(=O)NC(C)(C)C)c1`, the IC50 was > 50 µM in test [1], 32 µM in test [2] and 1.8 µM in test [3].

For the molecule `CCN(CC)CCCCNc1cc2nc(N)c(-c3c(Cl)cccc3Cl)cc2cn1`, the IC50 was 0.042 µM in test [1] and 4 µM in test [2].

As to `CN1CCN(CCCNc2cc3nc(NC(=O)NC(C)(C)C)c(-c4c(Cl)cccc4Cl)cc3cn2)CC1`, the half-maximal inhibitory concentration (IC50) in test [1] was found to be 0.019 µM; in test [2], 0.62 µM.

On to `CCNC(=O)Nc1nc2cc(NCCCN3CCN(C)CC3)ncc2cc1-c1c(Cl)cccc1Cl`, for which the IC50 in test [1] was 0.019 µM; in test [2], 0.54 µM.

As to `COc1cc(OC)cc(-c2cc3cnc(NCCCCCO)cc3nc2NC(=O)NC(C)(C)C)c1`, the concentration for half-maximal inhibition (IC50) is > 50 µM in test [1], 11 µM in test [2] and 3.4 µM in test [3].

As to `COc1cc(OC)cc(C2Cc3cnc(N(CCCCCO)C(C)=O)cc3N=C2NC(=O)NC(C)(C)C)c1` (stereo unspecified), the IC50 in test [1] and in test [2] was > 50 µM each time.

For the molecule `COc1cc(OC)cc(-c2cc3cnc(N(CCCOCc4ccccc4)C(C)=O)cc3nc2NC(=O)NC(C)(C)C)c1`, the half-maximal inhibitory concentration (IC50) in test [1] and in test [2] was > 50 µM in each case.

For the molecule `CCN(CC)CCCCNc1cc2nc(N)c(-c3cc(OC)cc(OC)c3)cc2cn1`, the IC50 in test [1] is 26 µM; in test [2], > 50 µM; in test [3] it was 5.9 µM.

As for `CCN(CC)CCCCNc1cc2nc(NC(=O)NC(C)(C)C)c(-c3c(Cl)cccc3Cl)cc2cn1`, the IC50 in test [1] stood at 0.014 µM; in test [2], 0.48 µM.

With `CCNC(=O)Nc1nc2cc(NCCCCN(CC)CC)ncc2cc1-c1cc(OC)cc(OC)c1`, the IC50 worked out at 7 µM in test [1], 6.5 µM in test [2] and 3.5 µM in test [3].

For the molecule `COc1cc(OC)cc(-c2cc3cnc(NCCCCCOc4ccccc4)cc3nc2NC(=O)NC(C)(C)C)c1`, the IC50 in test [1] and in test [2] was > 50 µM in each case.

For `COc1cc(OC)cc(-c2cc3cnc(N(CCCCOCc4ccccc4)C(C)=O)cc3nc2NC(=O)NC(C)(C)C)c1`, the IC50 in test [1] and in test [2] was > 50 µM throughout.

For `CCN(CC)CCCCNc1cc2nc(N)c(-c3ccccc3)cc2cn1`, the IC50 in test [1] was 1.4 µM; in test [2], 12 µM.

The values above are taken from ChEMBL document CHEMBL1145157, “Synthesis and structure-activity relationships of soluble 7-substituted 3-(3,5-dimethoxyphenyl)-1,6-naphthyridin-2-amines and related ureas as dual inhibitors of the fibroblast growth factor receptor-1 and vascular endothelial growth factor receptor-2 tyrosine kinases” (J Med Chem, 2005).
